# Values quoted from earlier work in Sander's compilation of Henry's law constants (doi:10.1021/je049850a).
# Experiment: Henry solubility constant Hcp at 298.15 K (mol/(m3 Pa))
# Conditions: reference: Plyasunov et al. (2004); cited value
row,Structure (SMILES),Henry solubility constant Hcp
1,"CC(=O)OC(C)(C)C [1,1-dimethylethyl ethanoate]",0.011
2,CCC(C)OC(C)=O (stereo not drawn) [2-butyl ethanoate],0.023
3,CC(C)COC(=O)C(C)C [2-methylpropyl 2-methylpropanoate],0.0078
4,CC(=O)OCC(C)C [2-methylpropyl ethanoate],0.024
5,CCCC(=O)OC(C)C [2-propyl butanoate],0.018
6,CC(=O)OC(C)C [2-propyl ethanoate],0.033
7,CC(=O)OCCC(C)C [3-methylbutyl ethanoate],0.02
8,CC(C)CCOC=O [3-methylbutyl methanoate],0.012
9,CC(C)COC=O [(2-methylpropyl)-methanoate],0.016
10,CCC(=O)OCC(C)C [(2-methylpropyl)-propanoate],0.015
11,CCCCOC(=O)CCC [butyl butanoate],0.016
12,CCCCOC(C)=O [butyl ethanoate],0.035
13,CCCCOC=O [butyl methanoate],0.019
14,CCCCOC(=O)CCCC [butyl pentanoate],0.0098
15,CCCCOC(=O)CC [butyl propanoate],0.02
16,"CCOC(=O)C(C)(C)C [ethyl 2,2-dimethylpropanoate]",0.0057
17,CCOC(=O)C(C)CC (stereo not drawn) [ethyl 2-methylbutanoate],0.014
18,CCOC(=O)C(C)C [ethyl 2-methylpropanoate],0.017
19,CCOC(=O)CC(C)C [ethyl 3-methylbutanoate],0.014
20,CCCC(=O)OCC [ethyl butanoate],0.029
21,CCCCCCCCCC(=O)OCC [ethyl decanoate],0.012
22,CCOC(C)=O [ethyl ethanoate],0.063
23,CCCCCC(=O)OCC [ethyl hexanoate],0.019
24,CCOC=O [ethyl methanoate],0.035

row,Structure (SMILES),Henry solubility constant Hcp
1,CCCCCCCC(=O)OCC [ethyl octanoate],0.017
2,CCCCC(=O)OCC [ethyl pentanoate],0.023
3,CCOC(=O)CC [ethyl propanoate],0.041
4,CCCCCCOC(C)=O [hexyl ethanoate],0.017
5,CCCCCCOC=O [hexyl methanoate],0.01
6,CC(C)OC=O [isopropyl methanoate],0.019
7,CCC(=O)OC(C)C [isopropyl propanoate],0.018
8,"COC(=O)C(C)(C)C [methyl 2,2-dimethylpropanoate]",0.0095
9,COC(=O)C(C)C [methyl 2-methylpropanoate],0.026
10,CCCC(=O)OC [methyl butanoate],0.042
11,COC(C)=O [methyl ethanoate],0.081
12,CCCCCCC(=O)OC [methyl heptanoate],0.018
13,CCCCCC(=O)OC [methyl hexanoate],0.026
14,CCCCCCCCC(=O)OC [methyl nonanoate],0.0082
15,CCCCCCCC(=O)OC [methyl octanoate],0.012
16,CCCCC(=O)OC [methyl pentanoate],0.03
17,CCC(=O)OC [methyl propanoate],0.055
18,CCCCCOC(C)=O [pentyl ethanoate],0.027
19,CCCCCOC=O [pentyl methanoate],0.016
20,CCCCCOC(=O)CC [pentyl propanoate],0.019
21,CCCOC(=O)CCC [propyl butanoate],0.022
22,CCCOC(C)=O [propyl ethanoate],0.045
23,CCCOC=O [propyl methanoate],0.028
24,CCCOC(=O)CC [propyl propanoate],0.029
